What all share (assay): inhibition of tumour cell growth, NCI panel, 48 h
For test [1], the system named is RPMI-8226 leukemia.
Test [2] relates to SK-MEL-28 melanoma.
Test [3] has as its system SF-268 CNS.
In test [4] the test system is ACHN renal.
In test [5] the test system is K-562 leukemia.
For test [6], the system named is SNB-75 CNS.
In test [7] the test system is SW-620 colon.
The subject of test [8] is NCI-H226 lung.
Test [9] relates to HL-60(TB) leukemia.
For test [10], the system named is SR leukemia.

Molecules are shown by their SMILES. “And” between values parts separate entries of the source, which are not always exact repeats. Equal values may be shown once.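 Compound exposure: 48 hours, 5 concentrations, 96-well plates. Abbreviation: GI50, concentration required for 50% inhibition of growth. At the TGI there is no net growth.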 Bounds are passed on as bounds.

In the case of `C[C@@H]1OC(=O)C[C@H]2CC(=O)N(CCc3cn(S(=O)(=O)C(F)(F)F)c4ccccc34)C[C@@H]21`, the TGI in test [1], in test [2], in test [3], in [4], in [5] and in test [6] was > 100 µM throughout. For the same compound, in [7], the TGI was > 100 µM.

Turning to `COCN1C(=O)[C@@H]2CCCN2C(=O)c2cc([N+](=O)[O-])ccc21`, the TGI in [2], in [3], in test [4], in test [8], in [6] and in test [7] was > 100 µM each time.

`O=C(/C=C/c1ccc(Cl)c(Cl)c1)Oc1ccc(/C=C2\CCCCC2=O)cc1`: the TGI in [1], in [2], in test [3], in test [4], in test [9] and in test [6] was > 100 µM in each case. Further, the TGI in [7] and in test [10] was > 100 µM in each case.

Consider `c1ccc(-c2cc(-c3cc(-c4ccccc4)n(-c4ccccc4)n3)nn2-c2ccccc2)cc1`, for which the TGI in [3], in test [4], in test [8], in test [5] and in test [6] was > 100 µM each time.

With `O=C(/C=C/c1ccc(O)c(O)c1)OCCOC(=O)/C=C/c1ccc(O)c(O)c1`, the TGI is > 100 µM in [1]; > 100 µM in test [2]; > 100 µM in [3]; 85.8 µM in [4]; 96.3 µM in test [8]; 63.2 µM in [5]. For the same compound, the TGI in [7] is > 100 µM; in test [10], 58.9 µM.

Regarding `S=C(Nc1ccc(Br)cn1)NC12CC3CC(CC(C3)C1)C2`, the TGI in test [1] was > 100 µM; in [2] it was > 100 µM; in test [3], 34.5 µM; in test [4], 56.1 µM; in [8], 64.8 µM; in [5], > 100 µM. The TGI in test [6] is 40.8 µM; in [7], > 100 µM; in [10] it was > 100 µM.

Regarding `NNC(=O)c1n[nH]nc1SSc1n[nH]nc1C(=O)NN`, the TGI in test [2], in test [3], in test [4], in test [8], in test [9] and in test [6] was > 100 µM throughout. Further, the TGI in [7] was > 100 µM.

`COc1ccc2c(c1)c1cc(OC)ccc1n2CCCCOc1ccc(-c2c3ccccc3c(-c3ccc(OCCCCn4c5ccc(OC)cc5c5cc(OC)ccc54)cc3)c3ccccc23)cc1`: the TGI in [2], in [3], in test [4], in [8], in test [5] and in test [6] was > 100 µM in each case. Moreover, the TGI in test [7] is > 100 µM.

`N#Cc1c(C#N)c(SSc2c(C#N)c(C#N)c(N)n2-c2ccccc2)n(-c2ccccc2)c1N`: the TGI in test [2] is 40.9 µM; in [3], > 72 µM; in [4], 21.4 µM; in [8], 54.3 µM; in [5] it was > 100 µM; in [6], > 70 µM. In addition, the TGI in [7] stood at 3.43 µM.

As to `COC(=O)CCCCC/C(=C\C(=O)C(Cl)(Cl)Cl)OC`, the TGI is 60.9 µM in test [1]; > 100 µM in test [2]; 86.3 µM in [3]; > 100 µM in test [4]; > 100 µM in test [5]; 47.6 µM in [9]. For the same compound, the TGI in test [6] amounted to 72.7 µM; in test [7] it was 84.3 µM; in [10], 45.2 µM.

As to `CN1CCN(c2ccc3[nH]c(C4=C(O)c5nc(CO)n(C)c5C(=O)C4=O)nc3n2)CC1`, the TGI in test [1], in test [2], in [3], in test [4], in [8] and in test [5] was > 100 µM each time. Also, the TGI in [9], in test [6] and in test [7] was > 100 µM in each case.

As to `CCC(=O)NCCc1c[nH]c2ccc(OC)cc12`, the TGI in [1], in test [2], in test [3], in [4], in [8] and in test [5] was > 100 µM throughout. The TGI in [6], in [7] and in test [10] was > 100 µM in each case.

With `CCOC(=O)CCC(NC(=O)OCc1ccccc1)C(=O)NC(CCC(=O)OCC)C(=O)NC(CCC(=O)OCC)C(=O)NC(CCC(=O)OCC)C(=O)NC(CCC(=O)OCC)C(=O)OCC` (stereo not given), the TGI in test [1], in test [2], in [4], in test [6], in [7] and in [10] was > 100 µM in each case.

Regarding `O=C(CCN1CCCC1)Nc1ccc2c(NCCCc3ccccc3)c3ccccc3nc2c1`, the GI50 in test [1] is 0.611 µM; in test [2] it was 1.77 µM; in test [4], 1.42 µM; in [8], 1.27 µM; in test [5], 0.945 µM; in test [6] it was 1.17 µM. The GI50 in test [7] was 0.54 µM; in test [10] it was 0.467 µM. Besides, the TGI in [1] came out at 3.63 µM; in [2], 3.25 µM; in test [4], 2.8 µM; in [8] it was 2.83 µM; in [5], 3.36 µM; in [6], 2.41 µM. The TGI in [7] amounted to 1.93 µM; in [10], 2.55 µM.

For `CSC(=NCCN=C(NS(=O)(=O)c1ccc(Cl)cc1)SC)NS(=O)(=O)c1ccc(Cl)cc1`, the TGI in test [1] is > 100 µM; in test [2] it was > 100 µM; in [3], 68.7 µM; in [4], > 100 µM; in test [5] it was > 100 µM; in test [9] it was > 100 µM. The figures for the TGI in [6], in test [7] and in test [10] were 51.3 µM, > 100 µM and > 100 µM, respectively.

With `N#Cc1c(-c2ccc(Cl)cc2)c(C#N)c(=O)n(NS(=O)(=O)c2ccccc2)c1-c1ccccc1`, the TGI in test [1], in test [2], in test [4], in test [5], in test [9] and in [7] was > 25 µM each time.

For the compound `CC(=O)Oc1c(OC(C)=O)c(-c2ccc(O)c(O)c2)c(O)c(O)c1-c1ccc(O)cc1`, the GI50 in test [1] is 20 µM; in [3] it was 80.6 µM; in test [8], 79.7 µM; in test [9] it was 19 µM. Besides, the TGI in test [1] is > 100 µM; in test [2], > 100 µM; in test [3] it was > 100 µM; in [8] it was > 100 µM; in test [5], > 100 µM; in test [9] it was 52.6 µM and > 100 µM. In addition, the TGI in test [6] and in test [7] was > 100 µM throughout.

On to `COc1ccc(C)cc1NC(=S)N/N=C/c1ccc(SC)cc1`, for which the TGI was 76.3 µM in test [1]; > 100 µM in test [2]; > 100 µM in test [3]; > 100 µM in test [4]; > 100 µM in test [5]; > 100 µM in test [9]. Further, the TGI in [6], in test [7] and in [10] was > 100 µM in each case.

For `CSc1c(C#N)c2n(c3ccccc3[n+]2C)c2ncccc12`, the TGI was > 100 µM in [1]; 49.1 µM in test [2]; 86.9 µM in test [3]; > 100 µM in test [4]; 49.9 µM in test [8]; > 100 µM in test [5]. Further, the values for the TGI in test [6], in test [7] and in [10] were 50.4 µM, > 100 µM and > 100 µM, respectively.

In the case of `C=C(Cl)C(Cl)(CBr)CCC(Cl)C(C)(C)Cl` (stereo not given), the TGI in [1] came out at 0.872 µM; in test [2] it was 3.8 µM; in [3] it was 2.92 µM; in test [4], 3.9 µM; in test [8], 61 µM; in [5] it was 29.3 µM. Besides, the TGI in test [6] is 1.77 µM; in test [7] it was 4.75 µM; in [10], 39.4 µM.

Turning to `Cc1ccc(/C=N/Nc2ncccn2)s1`, the TGI in [1], in [2], in [3], in [4], in test [8] and in test [6] was > 100 µM each time. For the same compound, the TGI in test [7] is > 100 µM.

Take `Cc1n[nH]c(=O)n1N=C(c1ccccc1)c1ccccc1`: the TGI in test [1], in [2], in [3], in [4], in test [8] and in [5] was > 100 µM in each case. For the same compound, the TGI in [7] is > 100 µM.

Take `CC(C)(C)/C(O)=C\c1nc2cc(C(F)(F)F)ccc2[nH]c1=O`: the TGI in [1], in test [2], in [3], in test [4], in test [8] and in [5] was > 100 µM throughout. Also, the TGI in test [9] was 19.8 µM; in test [6] it was > 100 µM; in test [7], > 100 µM.

As to `CC12ON=C(c3ccccc3)N1C=CN1C(c3ccccc3)=NOC12` (stereo not given), the TGI in [3], in [4], in test [8] and in test [6] was > 100 µM each time.

As to `COC(=O)C1=C(O)C(C(=O)OC)[C@]2(O)[C@H](C(=O)OC)[C@H]1C[C@@H](c1ccc(OC)cc1)[C@H]2C(=O)OC` (stereo not given in full), the TGI in test [1] was 57.4 µM; in test [2] it was > 100 µM; in test [3], > 100 µM; in [4], 37.6 µM; in [8], > 100 µM; in [5] it was > 100 µM. Moreover, the TGI was 91.8 µM in test [6], > 100 µM in [7] and 86.1 µM in [10].

On to `COc1cc(CC2c3cc(OC)c(OC)cc3CCN2C)c(Oc2cc3c(cc2OC)-c2c(OC)c(OC)c(OC)c4c2C(C3)N(C)CC4)cc1OC` (stereo not given), for which the TGI was > 45.7 µM in test [1]; 22.8 µM in test [2]; 32.8 µM in [3]; 30.9 µM in test [4]; 32.7 µM in test [8]; > 30.5 µM in test [5]. The TGI in test [9] was > 100 µM; in test [6], 25 µM; in test [7], 30.7 µM.

For the compound `CCN1/C(=C/C(C)=C/c2sc3ccccc3[n+]2CC)Sc2ccccc21`, the TGI in [1] turned out to be 4.48 µM; in test [2], 1.22 µM; in test [3], 1.76 µM; in test [4], 3.13 µM; in test [5], 1.24 µM; in [9], 4.78 µM. Moreover, the figures for the TGI in test [6] and in test [10] were 1.15 µM and 1.75 µM, respectively.

Turning to `CCCc1c2c3ccccc3nc-2nc2ccccn12`, the TGI was > 100 µM in test [1]; > 100 µM in [2]; 70.4 µM in test [3]; > 100 µM in [4]; > 100 µM in test [5]; > 100 µM in [9]. Besides, the TGI in test [6], in [7] and in test [10] was > 100 µM each time.

As to `Nc1ccn(C2OC(COP(=O)(O)Oc3ccccc3)C(O)C2O)c(=O)n1` (stereo not given), the TGI in test [1], in test [2], in test [3], in test [8], in [5] and in test [9] was > 100 µM throughout. For the same compound, the TGI in test [6] and in [7] was > 100 µM throughout.

For the compound `O=C(C1OC1c1ccc([N+](=O)[O-])cc1)C12CC3CC(CC(C3)C1)C2` (stereo not given), the TGI in test [2] was determined as 33.4 µM; in test [3] it was 40.8 µM; in [4], 34 µM; in [8], 39.4 µM; in test [5], 33.5 µM; in test [9], 16.1 µM. Moreover, the TGI in [6] turned out to be 39.4 µM; in test [7] it was 56 µM.

Source of the values: PubChem BioAssay (NCI).
